Laboratory results taken from US20230116972A1, “CD38 MODULATORS AND METHODS OF USE THEREOF” (Cytokinetics, Inc., priority 2021, published 2023).

What was measured:
human CD38 = molecular target: T1, human CD38 (Homo sapiens, UniProt P28907); assay: human recombinant CD38 enzyme assay (hydrolysis of NAD+); format: biochemical; conditions: human recombinant CD38, 0.4 nM enzyme, 62.5 μM NAD+; read-out: hCD38 BioChem IC50
T1 sequence (P28907 1-300): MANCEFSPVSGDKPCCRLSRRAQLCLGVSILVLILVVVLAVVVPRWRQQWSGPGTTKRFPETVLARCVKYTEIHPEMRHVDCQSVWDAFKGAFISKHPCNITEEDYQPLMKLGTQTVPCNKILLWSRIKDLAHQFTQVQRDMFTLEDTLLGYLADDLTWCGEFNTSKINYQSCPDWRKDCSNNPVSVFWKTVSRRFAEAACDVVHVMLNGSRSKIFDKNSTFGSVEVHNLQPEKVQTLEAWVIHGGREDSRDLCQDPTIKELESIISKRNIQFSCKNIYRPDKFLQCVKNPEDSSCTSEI
How it was run: (§1)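 Residual NAD+ after 60 min of cell-free hydrolysis by recombinant mouse or human CD38 at ambient temperature, measured over a dose range. Detection used ADH conversion to NADH, then diaphorase-coupled resazurin-to-resorufin fluorescence (Ex/Em 540/590 nm).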

mouse CD38 = molecular target: T2, mouse CD38 (Mus musculus, UniProt P56528); assay: mouse recombinant CD38 enzyme assay (hydrolysis of NAD+); format: biochemical; conditions: read-out: mCD38 BioChem IC50
T2 sequence (P56528 1-304): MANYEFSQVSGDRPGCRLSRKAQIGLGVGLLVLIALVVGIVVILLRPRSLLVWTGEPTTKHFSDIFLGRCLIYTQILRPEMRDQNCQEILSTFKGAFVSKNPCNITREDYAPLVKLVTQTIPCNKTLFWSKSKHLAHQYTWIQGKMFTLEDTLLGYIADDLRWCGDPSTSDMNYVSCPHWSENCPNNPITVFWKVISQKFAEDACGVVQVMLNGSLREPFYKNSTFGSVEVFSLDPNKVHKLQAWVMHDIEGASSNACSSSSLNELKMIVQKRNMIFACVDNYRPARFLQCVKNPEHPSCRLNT
How it was run: as §1

[1] = molecular target: T3, endogenous CD38 in HL60 cells (Homo sapiens, UniProt P28907); assay: cellular CD38 assay in HL60 cells (cellular NAD levels); format: cell-based; conditions: all-trans retinoic acid, 24 hours, read-out: hCD38 HL60 ATRA NAD Cell Diaphorase IC50
T3 construct: endogenous in cells; host or cells: HL60 (leukemic cells, treated with all-trans retinoic acid)
T3 sequence (P28907 1-300): T1 sequence (P28907 1-300)
How it was run: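 Endogenous CD38 inhibition is inferred from NAD levels in HL60 cells after 24 h compound exposure at 20000 cells per well. A lytic cycling readout (0.2 U/mL diaphorase, 0.8 U/mL alcohol dehydrogenase, resazurin, FMN, ethanol, 0.2% Triton X-100, Tris/EDTA pH 8.4) ran 60 min at ambient temperature. Resorufin fluorescence was read at 540/590 nm.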

Row | IC50 (human CD38) [nM] | IC50 (mouse CD38) [nM] | IC50 [1] [nM] | SMILES
1 | 5.6 | 1.1 | 707 | COCCOc1cc(-c2cncn2C)nc(C(=O)Nc2ccc(C(F)F)nc2)n1 [Compound 224, N-(6-(difluoromethyl)pyridin-3-yl)-4-(2-methoxyethoxy)-6-(1-methyl-1H-imidazol-5-yl)pyrimidine-2-carboxamide]
2 | 13.5 | 3.8 | 2150 | Cn1cncc1-c1nc(C(=O)N[C@H]2CC[C@H](OC(F)F)CC2)cc(C2(C)COC2)n1 [Compound 311, N-((1r,4r)-4-(difluoromethoxy)cyclohexyl)-2-(1-methyl-1H-imidazol-5-yl)-6-(3-methyloxetan-3-yl)pyrimidine-4-carboxamide]
3 | 3.9 | 1.7 | 576 | Cn1cncc1-c1cc(C2CC2)nc(C(=O)Nc2ccc(C(F)F)nc2)n1 [Compound 206, 4-cyclopropyl-N-(6-(difluoromethyl)pyridin-3-yl)-6-(1-methyl-1H-imidazol-5-yl)pyrimidine-2-carboxamide]
4 | 404 | 163 | 5910 | O=C(NC1CCOC1)c1cccc(-n2ccnc2)n1 (stereo not drawn) [Compound 63, 6-(1H-imidazol-1-yl)-N-(tetrahydrofuran-3-yl)picolinamide]
5 | 2 | 2 | 335 | COc1cc(C(=O)Nc2ccc(C(F)F)nc2)nc(-n2ccnc2)n1 [Compound 127, N-(6-(difluoromethyl)pyridin-3-yl)-2-(1H-imidazol-1-yl)-6-methoxypyrimidine-4-carboxamide]
6 | 46.1 | 15.6 | 2280 | Cn1cncc1-c1ccnc(C(=O)N[C@H]2CC[C@H](CO)CC2)n1 [Compound 259, N-((1r,4r)-4-(hydroxymethyl)cyclohexyl)-4-(1-methyl-1H-imidazol-5-yl)pyrimidine-2-carboxamide]
7 | 8 | 2 | 1250 | CC(C)c1cc(C(=O)Nc2ccc(C(F)F)nc2)nc(-c2cncn2C)n1 [Compound 173, N-(6-(difluoromethyl)pyridin-3-yl)-6-isopropyl-2-(1-methyl-1H-imidazol-5-yl)pyrimidine-4-carboxamide]
8 | 4 | 13 | 369 | Cn1cncc1-c1cncc(C(=O)Nc2ccc(C(F)(F)F)nc2)n1 [Compound 90, 6-(1-methyl-1H-imidazol-5-yl)-N-(6-(trifluoromethyl)pyridin-3-yl)pyrazine-2-carboxamide]
9 | 23 | 3 | 1630 | CO[C@H]1CC[C@H](NC(=O)c2cc(C)cc(-n3ccnc3)n2)CC1 [Compound 96, 6-(1H-imidazol-1-yl)-N-(4-methoxycyclohexyl)-4-methylpicolinamide]
10 | 4 | 19 | 295 | O=C(Nc1ccc(C(F)(F)F)nc1)c1nccc(-n2ccnc2)n1 [Compound 72, 4-(1H-imidazol-1-yl)-N-(6-(trifluoromethyl)pyridin-3-yl)pyrimidine-2-carboxamide]
11 | 9 | 8 | 903 | O=C(Nc1ccc(C(F)(F)F)nc1)c1nc(-n2ccnc2)ccc1F [Compound 42, 3-fluoro-6-(1H-imidazol-1-yl)-N-(6-(trifluoromethyl)pyridin-3-yl)picolinamide]
12 | 38 | 19 | 2080 | CO[C@H]1CC[C@H](NC(=O)c2cncc(-c3cncn3C)n2)CC1 [Compound 91, N-((1r,4r)-4-methoxycyclohexyl)-6-(1-methyl-1H-imidazol-5-yl)pyrazine-2-carboxamide]
13 | 61 | 12 | 6710 | O=C(N[C@H]1CC[C@H](O)CC1)c1cc(C(F)(F)F)cc(-n2ccnc2)n1 [Compound 62, N-(4-hydroxycyclohexyl)-6-(1H-imidazol-1-yl)-4-(trifluoromethyl)picolinamide]
14 | 2.5 | 0.3 | 403 | COCCOc1cc(C(=O)Nc2ccc(C(F)(F)F)nc2)nc(-c2cncn2C)n1 [Compound 267, 6-(2-methoxyethoxy)-2-(1-methyl-1H-imidazol-5-yl)-N-(6-(trifluoromethyl)pyridin-3-yl)pyrimidine-4-carboxamide]
15 | 25.2 | 11.6 | 2220 | COc1ccc([C@H]2C[C@H](NC(=O)c3nccc(-c4cncn4C)n3)C2)cc1 [Compound 218, N-((1r,3r)-3-(4-methoxyphenyl)cyclobutyl)-4-(1-methyl-1H-imidazol-5-yl)pyrimidine-2-carboxamide]
16 | 73 | 13 | 7850 | COCCO[C@H]1CC[C@H](NC(=O)c2cc(C(F)(F)F)cc(-n3ccnc3)n2)CC1 [Compound 61, 6-(1H-imidazol-1-yl)-N-(4-(2-methoxyethoxy)cyclohexyl)-4-(trifluoromethyl)picolinamide]
17 | 228 | 185 | 3980 | CC(C)(O)c1cc(C(=O)Nc2ccc(C(F)F)nc2)nc(-n2ccnc2)n1 [Compound 158, N-(6-(difluoromethyl)pyridin-3-yl)-6-(2-hydroxypropan-2-yl)-2-(1H-imidazol-1-yl)pyrimidine-4-carboxamide]
18 | 448 | 64 | 10400 | Cc1ncccc1NC(=O)c1cccc(-n2ccnc2)n1 [Compound 27, 6-(1H-imidazol-1-yl)-N-(2-methylpyridin-3-yl)picolinamide]
19 | 1090 | 234 | 6780 | O=C(Nc1cncc(F)c1)c1cc(-n2ccnc2)ccn1 [Compound 3, N-(5-fluoropyridin-3-yl)-4-(1H-imidazol-1-yl)picolinamide]
20 | 199 | 175 | 3950 | O=C(N[C@H]1C[C@H](c2ccc(C(F)(F)F)nc2)C1)c1nccc(-n2ccnc2)n1 [Compound 269, 4-(1H-imidazol-1-yl)-N-((1r,3r)-3-(6-(trifluoromethyl)pyridin-3-yl)cyclobutyl)pyrimidine-2-carboxamide]
21 | 8 | 7 | 867 | Cc1ccc(NC(=O)c2cc(C(F)(F)F)nc(-n3ccnc3)n2)cn1 [Compound 137, 2-(1H-imidazol-1-yl)-N-(6-methylpyridin-3-yl)-6-(trifluoromethyl)pyrimidine-4-carboxamide]
22 | 5.1 | 42.6 | 865 | COc1ncc(-c2cncn2C)nc1C(=O)Nc1ccc(C(F)(F)F)nc1 [Compound 279, 3-methoxy-6-(1-methyl-1H-imidazol-5-yl)-N-(6-(trifluoromethyl)pyridin-3-yl)pyrazine-2-carboxamide]
23 | 3.8 | 1.6 | 376 | Cc1cc(-c2cncn2C)nc(C(=O)Nc2ccc(C(F)(F)F)nc2)n1 [Compound 235, 4-methyl-6-(1-methyl-1H-imidazol-5-yl)-N-(6-(trifluoromethyl)pyridin-3-yl)pyrimidine-2-carboxamide]
24 | 277 | 59.7 | 11000 | Cn1cncc1-c1ccnc(C(=O)N[C@H]2C[C@H](C(C)(C)O)C2)n1 [Compound 284, N-((1r,3r)-3-(2-hydroxypropan-2-yl)cyclobutyl)-4-(1-methyl-1H-imidazol-5-yl)pyrimidine-2-carboxamide]
25 | 125 | 94.3 | 6270 | O=C(N[C@H]1CC[C@H](OC(F)(F)F)CC1)c1nccc(-n2ccnc2)n1 [Compound 308, 4-(1H-imidazol-1-yl)-N-((1r,4r)-4-(trifluoromethoxy)cyclohexyl)pyrimidine-2-carboxamide]
26 | 10 | 10 | 675 | O=C(Nc1ccc(C(F)(F)F)nc1)c1ccc(F)c(-n2ccnc2)n1 [Compound 53, 5-fluoro-6-(1H-imidazol-1-yl)-N-(6-(trifluoromethyl)pyridin-3-yl)picolinamide]
27 | 79 | 16 | 1110 | O=C(NC1CC2(C1)CC(F)(F)C2)c1ccnc(-n2ccnc2)n1 [Compound 78, N-(6,6-difluorospiro[3.3]heptan-2-yl)-2-(1H-imidazol-1-yl)pyrimidine-4-carboxamide]
28 | 4.5 | 1 | 709 | Cn1cncc1-c1nc(C(=O)Nc2ccc(C(F)F)nc2)cc(C2CCOCC2)n1 [Compound 197, N-(6-(difluoromethyl)pyridin-3-yl)-2-(1-methyl-1H-imidazol-5-yl)-6-(tetrahydro-2H-pyran-4-yl)pyrimidine-4-carboxamide]
